Legend:
[1] = system: resistant Escherichia coli; assay: MIC alone and in combination against 30 strains of resistant Escherichia coli; assay type: cell-based
Protocol: The manner in which the compounds of the formula I increase the effectiveness of the compound of formula XXII and the pharmaceutically-acceptable salts thereof can be appreciated by reference to experiments in which the MIC of the compound of the formula XXII alone, and the compound of the formula I wherein R^1 is hydrogen alone, are measured. These MIC's are then compared with the MIC values obtained with a combination of the compound of formula XXII and the compound of the formula I, wherein R^1 is hydrogen. […] The MIC values of combinations are measured using the method described by Barry and Sabath in "Manual of Clinical Microbiology", edited by Lenette, Spaulding and Truant, 2nd edition, 1974, American Society of Microbiology.
The minimum inhibitory concentrations (MIC's) of penicillanic acid 1,1-dioxide (PA 1,1-dioxide) alone and 7-(D-2-[4-ethylpiperazine-2,3-dione-1-carboxamido]-2-[4-hydroxyphenyl]acetamido)-3-([1-methyl-5-tetrazolyl]thiomethyl)-3-desacetoxymethylcephalosporanic acid (T-1551) alone, against 30 strains of resistant Escherichia coli, were measured. These MIC's were then compared with the MIC values obtained with a combination of the two compounds. The results were as follows:
The MIC's were measured using the method recommended by the International Collaborative Study on Antibiotic Sensitivity Testing (Ericcson and Sherris, Acta. Pathologica et Microbiologica Scandivav, Supp. 217, Section B, 64-68 [1971]), which employed brain heart infusion agar and the inocular replicating device. Overnight growth tubes were diluted 10-fold for use as the standard inoculum. Twelve two-fold dilutions of the test compound were employed with initial concentration of the test drug being 200 mcg/ml. Single colonies were disregarded when reading plates after 18 hours at 37° C. […] The MIC's of combinations were measured using the method described by Barry and Sabath in "Manual of Clinical Microbiology", edited by Lenette, Spaulding and Truant, 2nd edition, 1974, American Society for Microbiology.

[2] = system: microbial beta-lactamases; assay: Inhibition of microbial beta-lactamases; assay type: biochemical; conditions: result in words

| SMILES | MIC ([1]; alone, BHI agar, 18 hours at 37° C., read-out: Mode MIC of T-1551 alone) [µg/mL] | Mode MIC's of T-1551 & PA 1,1-Dioxide in Combination: T-1551 ([1]; in combination with PA 1,1-Dioxide (1.56)) | Mode MIC's of T-1551 & PA 1,1-Dioxide in Combination: PA 1,1-Dioxide ([1]; in combination with T-1551 (1.56)) | inhibition of microbial beta-lactamases [2] |
| --- | --- | --- | --- | --- |
| CCN1CCN(C(=O)N[C@@H](C(=O)N[C@@H]2C(=O)N3C(C(=O)O)=C(CSc4nnnn4C)CS[C@H]23)c2ccc(O)cc2)C(=O)C1=O [Example T-1551, 7-(D-2-[4-ethylpiperazine-2,3-dione-1-carboxamido]-2-[4-hydroxyphenyl]acetamido)-3-([1-methyl-5-tetrazolyl]thiomethyl)-3-desacetoxymethylcephalosporanic acid] | 100 | 1.56 | – | – |
| CC1(C)[C@H](C(=O)O)N2C(=O)C[C@H]2S1(=O)=O [Penicillanic Acid 1,1-Dioxide] | – | – | 1.56 | potent inhibitors of microbial beta-lactamases |
